Results: patent EP4714952A1, “COMPOUND AND USE THEREOF” (Autobio Group Co., Ltd., priority 2023, dated 2025)
Structures can show the parent of a compound that is named as a salt. Where two headings read alike, the source gives them in different places.

Tests used:
PDE3A = target: T1, PDE3A (Homo sapiens, UniProt Q14432); test: In vitro inhibitory effect on PDE3A enzyme (AMP-Glo assay); assay type: biochemical
T1 construct: purchased BPS
Experimental: (§1) 1. Table 1 Main reagents and consumables for in vitro detection of inhibitory effect
(§2) 2. Preparation of experimental buffers Reaction buffer (5×): 50 mM Tris-HCl (buffer), 50 mM MgCl2, 0.5% BSA, 0.25% Tween-20, pH 7.4, stored at -20°C. 3. […] The starting concentration of the reference substance serial dilution was the Low control, and 1% DMSO-reaction buffer served as the High control. • 3) The enzyme was diluted to the desired concentration with 1× reaction buffer, and 4 µL of the diluted solution was transferred to the assay plate. After centrifugation, the 384-well low dead-volume microplate was sealed with sealing film and incubated in the incubator at 23°C for 15 minutes. • 4) The substrate cAMP was diluted to the desired concentration using 1× reaction buffer, and 5 µL of the diluted solution was transferred to the assay plate. After centrifugation, the plate was sealed again and incubated in the incubator at 23°C for 60 minutes (PDE3A) or 10 minutes (PDE4B1). • 5) Then, 5 µL of Reagent I from the AMP-Glo™ Assay Kit was added to the assay plate. After centrifugation and sealing, the plate was incubated in the incubator at 23°C for 60 minutes. • 6) The detection solution was prepared according to the AMP-Glo™ Assay Kit instructions, and 10 µL of the detection solution was added to the assay plate. After centrifugation and sealing, the plate was incubated in the incubator at 23°C for 60 minutes. • 7) The readout was recorded using a multimode microplate reader. 4. […] 5.

PDE4B1 = target: T2, PDE4B1 (Homo sapiens, UniProt Q07343); test: In vitro inhibitory effect on PDE4B1 enzyme (AMP-Glo assay); assay type: biochemical
T2 construct: purchased Sigma
T2 sequence (Q07343 whole entry): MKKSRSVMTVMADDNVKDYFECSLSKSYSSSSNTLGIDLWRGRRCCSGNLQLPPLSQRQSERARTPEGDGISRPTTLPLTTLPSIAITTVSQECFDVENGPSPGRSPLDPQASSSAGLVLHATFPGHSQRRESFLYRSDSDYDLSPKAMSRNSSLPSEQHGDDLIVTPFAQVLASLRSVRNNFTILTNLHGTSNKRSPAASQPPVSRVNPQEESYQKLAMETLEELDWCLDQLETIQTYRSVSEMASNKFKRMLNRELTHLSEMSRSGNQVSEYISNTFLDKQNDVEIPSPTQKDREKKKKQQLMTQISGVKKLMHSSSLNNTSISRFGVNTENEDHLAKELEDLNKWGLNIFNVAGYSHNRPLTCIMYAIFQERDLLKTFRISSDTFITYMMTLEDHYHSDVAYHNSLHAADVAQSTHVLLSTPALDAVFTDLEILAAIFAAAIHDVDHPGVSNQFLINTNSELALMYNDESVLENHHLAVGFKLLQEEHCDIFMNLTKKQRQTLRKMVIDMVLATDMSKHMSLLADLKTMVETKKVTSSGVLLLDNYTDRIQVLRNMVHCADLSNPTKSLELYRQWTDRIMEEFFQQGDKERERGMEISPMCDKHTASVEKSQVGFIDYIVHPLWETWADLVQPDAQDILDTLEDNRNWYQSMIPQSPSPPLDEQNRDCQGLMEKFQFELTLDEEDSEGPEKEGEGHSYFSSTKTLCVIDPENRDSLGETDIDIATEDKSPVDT
Experimental: as §1, §2

[1] = AMP-Glo Assay Kit, substrate cAMP, 23°C, 60 minutes, read-out: PDE3A (IC50)
[2] = AMP-Glo Assay Kit, substrate cAMP, 23°C, 10 minutes, read-out: PDE4B1 (IC50)

T1 sequence (Q14432 whole entry): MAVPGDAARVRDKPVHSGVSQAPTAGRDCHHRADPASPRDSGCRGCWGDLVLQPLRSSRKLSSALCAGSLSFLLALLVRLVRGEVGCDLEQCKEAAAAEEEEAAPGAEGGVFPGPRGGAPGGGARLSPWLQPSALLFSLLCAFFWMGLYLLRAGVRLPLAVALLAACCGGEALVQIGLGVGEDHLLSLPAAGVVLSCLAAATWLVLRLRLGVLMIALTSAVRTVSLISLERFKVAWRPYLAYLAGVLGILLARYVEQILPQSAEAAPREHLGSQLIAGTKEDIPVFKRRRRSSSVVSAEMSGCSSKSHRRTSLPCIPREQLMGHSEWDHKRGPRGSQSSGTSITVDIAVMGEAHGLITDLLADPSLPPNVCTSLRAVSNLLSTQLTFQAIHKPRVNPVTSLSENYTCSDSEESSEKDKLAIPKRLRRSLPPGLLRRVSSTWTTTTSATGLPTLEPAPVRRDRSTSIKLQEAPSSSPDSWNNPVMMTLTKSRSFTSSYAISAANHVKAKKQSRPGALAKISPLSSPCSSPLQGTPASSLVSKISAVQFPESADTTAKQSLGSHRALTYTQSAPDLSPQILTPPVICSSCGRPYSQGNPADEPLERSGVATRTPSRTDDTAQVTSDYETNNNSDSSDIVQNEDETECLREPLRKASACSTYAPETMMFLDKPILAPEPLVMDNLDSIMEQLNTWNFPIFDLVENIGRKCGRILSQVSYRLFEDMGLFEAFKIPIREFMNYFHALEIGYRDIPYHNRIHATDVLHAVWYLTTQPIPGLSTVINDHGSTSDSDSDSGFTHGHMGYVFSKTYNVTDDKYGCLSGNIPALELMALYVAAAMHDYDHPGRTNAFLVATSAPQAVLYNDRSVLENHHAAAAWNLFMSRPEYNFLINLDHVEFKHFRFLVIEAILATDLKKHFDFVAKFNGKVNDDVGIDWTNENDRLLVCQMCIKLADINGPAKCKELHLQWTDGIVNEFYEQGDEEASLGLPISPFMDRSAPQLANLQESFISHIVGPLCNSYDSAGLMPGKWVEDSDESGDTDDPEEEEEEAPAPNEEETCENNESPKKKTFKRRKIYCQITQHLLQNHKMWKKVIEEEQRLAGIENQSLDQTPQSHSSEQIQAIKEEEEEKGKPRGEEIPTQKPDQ

Structure (SMILES)	IC50 (PDE3A)	IC50 (PDE4B1)	IC50 (PDE3A; [1])	IC50 (PDE4B1; [2])
CCOc1cc2c(cc1OC)-c1cc(N(CCN)c3c(C)cc(C)cc3C)nc(=O)n1CC2 [Compound 42]	0.62 nM	75.3 nM		
COc1cc2c(cc1OC)-c1cc(N(CCC#N)c3c(C)cc(C)cc3C)nc(=O)n1CC2 [Compound 1]	0.11 nM	298 nM		
CNCCn1c(=Nc2c(C)cc(C)cc2C)cc2n(c1=O)CCc1cc(OC)c(OC)cc1-2 [Compound 16]			6.63 nM	
CCOc1cc2c(cc1OC)-c1cc(N(CCN3CCS(=O)(=O)CC3)c3c(C)cc(C)cc3C)nc(=O)n1CC2 [Compound 72]			0.074 nM	5 nM
CCOc1cc2c(cc1OC)-c1cc(=Nc3c(C)cc(C)cc3C)n(CCNC(=O)c3ccnc(Cl)c3)c(=O)n1CC2 [Compound 29]	4.78 nM	423 nM		
Cc1cc(C)c(N=c2cc3n(c(=O)n2CCNC(N)=O)CCc2cc4c(cc2-3)OCO4)c(C)c1 [Compound 11]	117 nM			
CCOc1cc2c(cc1OC)-c1cc(N(CCC(N)C(F)(F)F)c3c(C)cc(C)cc3C)nc(=O)n1CC2 (stereo not shown) [Compound 78]			0.027 nM	8.9 nM
COc1cc2c(cc1OC)-c1cc(=Nc3c(C)cc(C)cc3C)n(CCNC(=O)c3cccn(CC(F)(F)F)c3=O)c(=O)n1CC2 [Compound 55]	0.49 nM	262 nM		
COc1cc2c(cc1OC)-c1cc(=Nc3c(C)cc(C)cc3C)n(CCC(C)(C)O)c(=O)n1CC2 [Compound 17]			0.54 nM	5000 nM
COc1cc2c(cc1OC1CCOC1)CCn1c-2cc(=Nc2c(C)cc(C)cc2C)n(CCNC(N)=O)c1=O (stereo not shown) [Compound 25]	4.47 nM	381 nM		
COc1cc2c(cc1OC)-c1cc(=Nc3c(C)cc(C)cc3C)n(CCNC(=O)c3cccn(C)c3=O)c(=O)n1CC2 [Compound 39]	0.72 nM	18.7 nM		
COc1cc2c(cc1OC)-c1cc(=Nc3c(C)cc(C)cc3C)n(CCNC(N)=O)c(=O)n1CCO2 [Compound 22]	3.3 nM	728 nM		
COc1cc2c(cc1OC)-c1cc(=Nc3c(C)cc(C)cc3C)n(CCNC(N)=O)c(=O)n1CCS2 [Compound 20]	24.9 nM	251 nM		
COc1cc2c(cc1OC)-c1cc(=Nc3c(C)cc(C)cc3C)n(CCNC(=O)OCC(O)CCO)c(=O)n1CC2 (stereo not shown) [Compound 69]	1.91 nM	6750 nM		
COc1cc2c(cc1OC)-c1cc(N(c3c(C)cc(C)cc3C)C3CN(C(=O)c4cnc[nH]4)C3)nc(=O)n1CC2 [Compound 49]			325 nM	
CCOc1cc2c(cc1OC)-c1cc(N(CCCN)c3c(C)cc(C)cc3C)nc(=O)n1CC2 [Compound 81]			0.33 nM	64.4 nM
CONC(=O)NCCn1c(=Nc2c(C)cc(C)cc2C)cc2n(c1=O)CCc1cc(OC)c(OC)cc1-2 [Compound 8]	0.86 nM	377 nM		
CCn1cccc(C(=O)NCCn2c(=Nc3c(C)cc(C)cc3C)cc3n(c2=O)CCc2cc(OC)c(OC)cc2-3)c1=O [Compound 40]	1.29 nM	82.1 nM		
CCOc1cc2c(cc1OC)-c1cc(N(CCNC(=O)c3ccno3)c3c(C)cc(C)cc3C)nc(=O)n1CC2 [Compound 62]			0.055 nM	2.6 nM
CCOc1cc2c(cc1OC)-c1cc(N(c3c(C)cc(C)cc3C)C3CN(C(=O)c4[nH]nnc4C)C3)nc(=O)n1CC2 [Compound 77]			24.7 nM	6730 nM
CCOc1cc2c(cc1OC)-c1cc(N(c3c(C)cc(C)cc3C)C3CC(NC(=O)c4c(O)nnn4C)C3)nc(=O)n1CC2 (stereo not shown) [Compound 31]	0.57 nM	193 nM		
COc1cc2c(cc1OC)-c1cc(=Nc3c(C)cc(C)cc3C)n(CCC(O)CO)c(=O)n1CC2 (stereo not shown) [Compound 5]			0.1 nM	974 nM
COc1cc2c(cc1OCc1ccccc1)CCn1c-2cc(=Nc2c(C)cc(C)cc2C)n(CCNC(N)=O)c1=O [Compound 24]			1010 nM	
COc1cc2c(cc1OC)-c1c/c(=N\c3c(C)cc(C)cc3C)n(C)c(=O)n1CC2 [Trequinsin Hydrochlorid, Trequinsin hydrochloride, reference compound]			0.227 nM	
CCOc1cc2c(cc1OC)-c1cc(N(CCNC(=O)c3nnc(C)o3)c3c(C)cc(C)cc3C)nc(=O)n1CC2 [Compound 65]			0.036 nM	10.8 nM
CCOc1cc2c(cc1OC)-c1cc(=Nc3c(C)cc(C)cc3C)n(CCNC(=O)c3ccnn(C)c3=O)c(=O)n1CC2 [Compound 59]	0.76 nM	27.6 nM		
CCOc1cc2c(cc1OC)-c1cc(N(CCN3CC(F)C3)c3c(C)cc(C)cc3C)nc(=O)n1CC2 [Compound 74]			0.05 nM	8.1 nM

Structure (SMILES)	IC50 (PDE3A)	IC50 (PDE4B1)	IC50 (PDE3A; [1])	IC50 (PDE4B1; [2])
COc1cc2c(cc1OC)-c1cc(N(CCNC(=O)c3cccn(C)c3=O)c3c(C)cc(C)cc3C)nc(=O)n1CC2 [Compound 46]	0.082 nM	17.8 nM		
CCOc1cc2c(cc1OC)-c1cc(=Nc3c(C)cc(C)cc3C)n(CCC(N)C(F)(F)F)c(=O)n1CC2 (stereo not shown) [Compound 79]			0.33 nM	2860 nM
COc1cc2c(cc1OC)-c1cc(N(c3c(C)cc(C)cc3C)C3CN(C(=O)c4ncon4)C3)nc(=O)n1CC2 [Compound 51]			89.5 nM	1450 nM
COc1cc2c(cc1OC)-c1cc(=Nc3c(C)cc(C)cc3C)n(CCNC(=O)c3cccn(C4CC4)c3=O)c(=O)n1CC2 [Compound 41]	1.14 nM	250 nM		
CCOc1cc2c(cc1OC)-c1cc(N(CCNC(=O)c3c[nH]nn3)c3c(C)cc(C)cc3C)nc(=O)n1CC2 [Compound 64]			0.019 nM	8.4 nM
COc1cc2c(cc1OC)-c1cc(N(c3c(C)cc(C)cc3C)C3CN(C(=O)c4nnc[nH]4)C3)nc(=O)n1CC2 [Compound 56]			0.82 nM	8880 nM
CCOc1cc2c(cc1OC)-c1cc(N(CCNC(=O)N3CCOCC3CO)c3c(C)cc(C)cc3C)nc(=O)n1CC2 (stereo not shown) [Compound 83]			0.043 nM	37.3 nM
CCOc1cc2c(cc1OC)-c1cc(=Nc3c(C)cc(C)cc3C)n(CCNC(=O)c3c(O)nnn3C)c(=O)n1CC2 [Compound 23]	0.0058 nM	12.9 nM		
COCCOc1cc2c(cc1OC)-c1cc(=Nc3c(C)cc(C)cc3C)n(CCNC(=O)c3c(O)nnn3C)c(=O)n1CC2 [Compound 28]	0.46 nM	478 nM		
COc1cc2c(cc1OC)-c1cc(=Nc3c(C)cc(C)cc3C)n(CCNC(=O)N3CCOCC3CO)c(=O)n1CC2 (stereo not shown) [Compound 70]	1.24 nM	2830 nM		
COc1cc2c(cc1OC)-c1cc(N(c3c(C)cc(C)cc3C)C3CN(C(=O)c4[nH]nnc4C)C3)nc(=O)n1CC2 [Compound 50]	0.005 nM	67.4 nM		
COc1cc2c(cc1OC)-c1cc(=Nc3c(C)cc(C)cc3C)n(CCN3CCn4c(nnc4C(F)(F)F)C3)c(=O)n1CC2 [Compound 34]	6.4 nM			
COc1cc2c(cc1OC)-c1cc(=Nc3c(C)cc(C)cc3C)n(CCNC(=O)N3CCn4c(nnc4C(F)(F)F)C3)c(=O)n1CC2 [Compound 33]	4.78 nM	3760 nM		
CCOc1cc2c(cc1OC)-c1cc(=Nc3c(C)cc(C)cc3C)n(CCCN)c(=O)n1CC2 [Compound 87]	3.02 nM	359 nM		
COc1cc2c(cc1OC)-c1cc(=Nc3c(C)cc(C)cc3C)n(CCNC(=O)NC3CCNCC3)c(=O)n1CC2 [Compound 67]	5.49 nM	3800 nM		
CCOc1cc2c(cc1OC)-c1cc(=Nc3c(C)cc(C)cc3C)n(CCNC(=O)c3cc[nH]c(=O)c3)c(=O)n1CC2 [Compound 30]	3.23 nM	26.3 nM		
CCOc1cc2c(cc1OC)-c1cc(=Nc3c(C)cc(C)cc3C)n(CCC(C)(C)O)c(=O)n1CC2 [Compound 54]			0.43 nM	697 nM
CCOc1cc2c(cc1OC)-c1cc(N(CC(=O)O)c3c(C)cc(C)cc3C)nc(=O)n1CC2 [Compound 76]	0.1 nM	172 nM		
COc1cc2c(cc1OC)-c1cc(N(c3c(C)cc(C)cc3C)C3CCN(C(=O)c4c(O)nnn4C)C3)nc(=O)n1CC2 (stereo not shown) [Compound 35]	0.56 nM	1280 nM		
CCOc1cc2c(cc1OC)-c1cc(=Nc3c(C)cc(C)cc3C)n(CCNC(=O)c3cccn(C)c3=O)c(=O)n1CC2 [Compound 52]	0.37 nM	0.89 nM		
COc1cc2c(cc1OC)-c1cc(N(CCC(O)CO)c3c(C)cc(C)cc3C)nc(=O)n1CC2 (stereo not shown) [Compound 6]			0.026 nM	121 nM
COc1cc2c(cc1OC)-c1cc(N(CCNC(=O)c3c(O)nnn3C)c3c(C)cc(C)cc3C)nc(=O)n1CC2 [Compound 44]	0.081 nM	223 nM		
CCOc1cc2c(cc1OC)-c1cc(N(CCN3CCN(C(C)=O)CC3)c3c(C)cc(C)cc3C)nc(=O)n1CC2 [Compound 71]			0.057 nM	13.2 nM
COc1cc2c(cc1OC1CCN(C)C1)CCn1c-2cc(=Nc2c(C)cc(C)cc2C)n(CCNC(N)=O)c1=O (stereo not shown) [Compound 37]	60.1 nM			
Cc1cc(C)c(N=c2cc3n(c(=O)n2CCNC(N)=O)CCc2cc4c(cc2-3)OCCO4)c(C)c1 [Compound 13]	44.6 nM			
COc1cc2c(cc1OC)-c1cc(N(c3c(C)cc(C)cc3C)C3CN(C(=O)c4c(O)nnn4C)C3)nc(=O)n1CC2 [Compound 47]			72.3 nM	
